Values after ≈ are worked out from the molar mass of the structure shown. Where two headings read alike, the source gives them in different places.
Legend:
[1] = test system: E. coli RNase P RNA, M1 RNA; test: Inhibition of bacterial RNase P activity, IC50 determination (cleavage of pATSerUG by M1 RNA); assay type: biochemical; conditions: NI = No inhibition
[2] = test system: Enterococcus faecalis (ATCC29212); test: MIC, broth microdilution (CLSI), Enterococcus faecalis ATCC29212; assay type: cell-based; conditions: read-out: MIC E. faecalis ATCC 29212
[3] = test system: Pseudomonas aeruginosa (ATCC27853); test: microbe, parasite or virus in culture; assay type: cell-based; conditions: read-out: MIC P. aeruginosa ATCC 27853
[4] = test system: Staphylococcus aureus subsp. aureus (ATCC29213); test: MIC, broth microdilution (CLSI), Staphylococcus aureus subsp. aureus ATCC29213; assay type: cell-based
H. influenzae ATCC 49247 = test: MIC, H. influenzae ATCC 49247; assay type: cell-based; conditions: Haemophilus influenzae, ATCC49247
A. baumannii ATCC 17978 = test: MIC, A. baumannii ATCC 17978; assay type: cell-based; conditions: Acinetobacter baumannii, ATCC17978
[5] = test system: P. aeruginosa NTUH-974 (MDR); test: MIC, P. aeruginosa NTUH-974 (MDR); assay type: cell-based
N. gonorrhoeae 612501 = test: MIC, N. gonorrhoeae 612501; assay type: cell-based; conditions: Neisseria gonorrhoeae
E. faecium ATCC 700221 = test: MIC, E. faecium ATCC 700221; assay type: cell-based
E. coli JW5503 = test: MIC, E. coli JW5503; assay type: cell-based; conditions: Escherichia coli, JW5503, read-out: MIC E. coli JW5503
K. pneumoniae ATCC 43816 = test: MIC, K. pneumoniae ATCC 43816; assay type: cell-based; conditions: Klebsiella pneumoniae, ATCC43816
S. aureus ATCC 29213 = test: MIC, S. aureus ATCC 29213 + 50% HS; assay type: cell-based; conditions: Staphylococcus aureus, ATCC29213
[6] = test system: S. aureus MRSA ATCC 33591; test: MIC, S. aureus MRSA ATCC 33591; assay type: cell-based
S. pneumoniae ATCC 49619 = test: MIC, S. pneumoniae ATCC 49619; assay type: cell-based; conditions: Streptococcus pneumoniae, ATCC49619
[7] = test system: Escherichia coli (ATCC25922); test: MIC, broth microdilution (CLSI), Escherichia coli ATCC25922
[8] = test system: Staphylococcus aureus (ATCC25923); test: MIC, broth microdilution (CLSI), Staphylococcus aureus ATCC25923
Procedure: Initial minimal inhibitory concentration (MIC) tests were made on two bacterial strains: • Escherichia coli (ATCC25922) • Staphylococcus aureus (ATCC25923).
Minimal Inhibitory Concentration (MIC)
MIC values were determined using the standard broth microdilution procedure based on the guidelines by the Clinical and Laboratory Standards Institute (CLSI). Briefly, the compounds were dissolved in DMSO to 10 mM. They were diluted in cation-adjusted Mueller-Hinton broth (CAMHB) to four times the highest concentration tested. A serial 2-fold dilution in CAMHB was done in microdilution plates. The inoculum of bacterial strain to be tested was prepared by making a suspension of colonies from an 18 to 24 hours old plate in CAMHB. The inoculum was diluted so that, after inoculation, each well contained approximately 5×10^5 CFU/mL. To a volume of 50 μl compound in CAMHB an equal volume of inoculum was added. The tray was sealed in a plastic bag and incubated at 35° C. for 16 to 20 hours. To aid in the detection of growth the dye resazurin was added to a final concentration 0.001% and incubated at room temperature for 1 h. Reduction of resazurin, and therefore bacterial growth, was seen as a change from blue to pink.

H. pylori ATCC 43504 = test: MIC, H. pylori ATCC 43504; assay type: cell-based; conditions: Helicobacter pylori, ATCC43504
M. phlei ATCC 11758 = test: MIC, M. phlei ATCC 11758; assay type: cell-based; conditions: Mycolicibacterium phlei, ATCC11758
[9] = test system: S. aureus USA300 MRSA BAA 1717; test: MIC, S. aureus USA300 MRSA BAA 1717; assay type: cell-based; conditions: Staphylococcus aureus
M. fortuitum ATCC 110 = test: MIC, M. fortuitum ATCC 110; assay type: cell-based; conditions: Mycolicibacterium fortuitum, ATCC110
[10] = ATCC29213, Table 16, read-out: MIC S. aureus ATCC 29213
[11] = Pseudomonas aeruginosa, read-out: MIC P. aeruginosa NTUH-974 (MDR)
[12] = Enterococcus faecium, ATCC700221; read-out: MIC E. faecium ATCC 700221
[13] = Staphylococcus aureus; read-out: MIC S. aureus MRSA ATCC 33591
[14] = ATCC25922, read-out: E. coli MIC, Table 15, NI = No inhibition
[15] = ATCC25922, read-out: MIC E. coli ATCC 25922, Table 16
[16] = ATCC25923, read-out: S. aureus ("Clinical") MIC
[17] = ATCC29213, Table 15, read-out: S. aureus ("wound") (MIC)
[18] = Pseudomonas aeruginosa; read-out: MIC P. aeruginosa NTUH-974 (MDR)

Structure (SMILES)	IC50 [1] [µM]	MIC [2] [mg/L]	MIC [3] [mg/L]	MIC [4, 10] [mg/L]	MIC (H. influenzae ATCC 49247) [mg/L]	MIC (A. baumannii ATCC 17978) [mg/L]	MIC [5, 11] [mg/L]	MIC (N. gonorrhoeae 612501) [mg/L]	MIC (E. faecium ATCC 700221; [12]) [mg/L]	MIC (E. coli JW5503) [mg/L]	MIC (K. pneumoniae ATCC 43816) [mg/L]	MIC (S. aureus ATCC 29213) [mg/L]	MIC [6, 13] [mg/L]	MIC (S. pneumoniae ATCC 49619) [mg/L]	MIC [7, 14] [mg/L]	MIC [7, 15] [mg/L]	MIC [8, 16] [mg/L]	MIC [4, 17] [mg/L]	MIC [5, 18] [mg/L]	further results
NCCCN1c2ccccc2Sc2cc(-c3cc4ccccc4[nH]3)ccc21 [compound 150, 3-(3-(1H-Indol-2-yl)-10H-phenothiazin-10-yl)propan-1-amine]	14	2 (≈ 5.38 µM)	> 128	2 (≈ 5.38 µM)	8 (≈ 21.5 µM)	16 (≈ 43.1 µM)	> 128	2 (≈ 5.38 µM)	2 (≈ 5.38 µM)	4 (≈ 10.8 µM)	16 (≈ 43.1 µM)	64	2 (≈ 5.38 µM)	8 (≈ 21.5 µM)	12 (≈ 32.3 µM)	16 (≈ 43.1 µM)	1 (≈ 2.69 µM)			
CNCCCN1c2ccccc2Sc2cc(-c3cc4ccccc4[nH]3)ccc21 [compound 186, 3-(3-(1H-indol-2-yl)-10H-phenothiazin-10-yl)-N-methylpropan-1-amine]	30	4 (≈ 10.4 µM)	> 128	4 (≈ 10.4 µM)	16 (≈ 41.5 µM)	16 (≈ 41.5 µM)	> 128	4 (≈ 10.4 µM)	4 (≈ 10.4 µM)	4 (≈ 10.4 µM)	128 (≈ 332 µM)	64	8 (≈ 20.8 µM)	32 (≈ 83 µM)	99 (≈ 257 µM)	16 (≈ 41.5 µM)	2 (≈ 5.19 µM)			
CC(C)NCCCN1c2ccccc2Sc2cc(-c3cc4ccccc4[nH]3)ccc21 [compound 197, 3-(3-(1H-indol-2-yl)-10H-phenothiazin-10-yl)-N-isopropylpropan-1-amine]	25	2 (≈ 4.84 µM)	> 128	2 (≈ 4.84 µM)	16 (≈ 38.7 µM)	64 (≈ 155 µM)	> 128	1 (≈ 2.42 µM)	2 (≈ 4.84 µM)	4 (≈ 9.67 µM)	> 128	128	16 (≈ 38.7 µM)	4 (≈ 9.67 µM)		64 (≈ 155 µM)	6 (≈ 14.5 µM)	4 (≈ 9.67 µM)		
NCCCN1c2ccc(-c3cc4ccccc4[nH]3)cc2Sc2cc(C(F)(F)F)ccc21 [compound 245, 3-(3-(1H-indol-2-yl)-7-(trifluoromethyl)-10H-phenothiazin-10-yl)propan-1-amine]	1	2 (≈ 4.55 µM)	> 128	2 (≈ 4.55 µM)	4 (≈ 9.1 µM)	16 (≈ 36.4 µM)		2 (≈ 4.55 µM)	1 (≈ 2.28 µM)	8 (≈ 18.2 µM)	32 (≈ 72.8 µM)	128	2 (≈ 4.55 µM)	16 (≈ 36.4 µM)	7 (≈ 15.9 µM)	8 (≈ 18.2 µM)	2 (≈ 4.55 µM)	1 (≈ 2.28 µM)	64 (≈ 146 µM)	
NCCNC(=O)c1ccc2c(c1)Sc1cc(C(F)(F)F)cc(NC3CCN(CCN)CC3)c1N2 [compound 255, N-(2-aminoethyl)-9-((1-(2-aminoethyl)piperidin-4-yl)amino)-7-(trifluoromethyl)-10H-phenothiazine-3-carboxamide trifluroroacetic acid]		16 (≈ 32.4 µM)	128 (≈ 259 µM)	8 (≈ 16.2 µM)	64 (≈ 129 µM)	128 (≈ 259 µM)	64 (≈ 129 µM)	16 (≈ 32.4 µM)		16 (≈ 32.4 µM)	128 (≈ 259 µM)	64		64 (≈ 129 µM)				8 (≈ 16.2 µM)		MIC (E. faecium ATCC 700221; Enterococcus faecium, ATCC700221, read-out: MIC E. faecium ATCC 700221): 32 mg/L (≈ 64.7 µM); MIC ([6]; Staphylococcus aureus, read-out: MIC S. aureus MRSA ATCC 33591): 16 mg/L (≈ 32.4 µM); MIC ([7]; ATCC25922, read-out: E. coli MIC): 39 mg/L (≈ 78.9 µM); MIC ([7]; ATCC25922, read-out: MIC E. coli ATCC 25922): 64 mg/L (≈ 129 µM); MIC ([8]; ATCC25923, read-out: S. aureus ("Clinical") MIC, Table 15): 2 mg/L (≈ 4.04 µM)
CC1CC(C)CN(c2ccc3c(c2)Sc2cc(C(F)(F)F)cc(NC4CCN(CCN)CC4)c2N3)C1.Cl.Cl.Cl (centres unmarked) [compound 274, N-(1-(2-aminoethyl)piperidin-4-yl)-7-(3,5-dimethyl-piperidin-1-yl)-3-(trifluoromethyl)-10H-phenothiazin-1-amine hydrochloride]	24	2	16	1	1	4		1	1	8	4	16	1	4	8	4		1	16	MIC (H. pylori ATCC 43504): 16 mg/L; MIC (M. phlei ATCC 11758): 4 mg/L; MIC [9]: 1 mg/L; MIC (M. fortuitum ATCC 110): 4 mg/L
